Reference: patent US8609672B2, “Piperazinylpyrimidine analogues as protein kinase inhibitors” (University of the Pacific, priority 2010, dated 2013)

Assays:
A549/ATCC = experiment: NCI-60 SRB growth inhibition: A549/ATCC; assay type: cell-based, human; conditions: Non-small cell lung cancer, 48 hours treatment; for CC50: Homo sapiens, read-out: LC50 (the source's name)
HCT-116 = experiment: NCI-60 SRB growth inhibition: HCT-116; assay type: cell-based; conditions: HCT-116, Colon cancer; 48 hours treatment
SF-268 = experiment: NCI-60 SRB growth inhibition: SF-268; assay type: cell-based, human; conditions: SF-268, CNS cancer; 48 hours treatment
MCF7 = experiment: NCI-60 SRB growth inhibition: MCF7; assay type: cell-based, human; conditions: MCF7, Breast cancer; 48 hours treatment
ABL kinase = target: T1, ABL kinase (Homo sapiens, UniProt P00519); experiment: Functional kinase inhibition assay: ABL; assay type: biochemical; conditions: 1 μM compound
T1 construct: purchased Millipore Corp. (Dundee, UK; assay service)
Protocol: [formula] The assay was performed in duplicates.
The results of kinase function inhibition assay are shown in Table 6, including the F-POC of 1 μM of compounds 4, 15, and 16 against the most sensitive kinases tested within this experiment. […] Kinases within the same subfamily are highlighted.

786-0 = experiment: NCI-60 SRB growth inhibition: 786-0; assay type: cell-based, human; conditions: 786-0, Renal cancer; 48 hours treatment
TK-10 = experiment: NCI-60 SRB growth inhibition: TK-10; assay type: cell-based, human; conditions: TK-10, Renal cancer, 48 hours treatment; for CC50: Homo sapiens, read-out: LC50 (the source's name)
MDA-MB-468 = experiment: NCI-60 SRB growth inhibition: MDA-MB-468; assay type: cell-based, human; conditions: MDA-MB-468, Breast cancer, 48 hours treatment; for CC50: Homo sapiens, read-out: LC50 (the source's name)
IGROVI = experiment: NCI-60 SRB growth inhibition: IGROVI; assay type: cell-based, human; conditions: Ovarian cancer, 48 hours treatment; for CC50: Homo sapiens, read-out: LC50 (the source's name)
SNB-19 = experiment: NCI-60 SRB growth inhibition: SNB-19; assay type: cell-based, human; conditions: SNB-19, CNS cancer, 48 hours treatment; for CC50: Homo sapiens, read-out: LC50 (the source's name)
NCI-H460 = experiment: NCI-60 SRB growth inhibition: NCI-H460; assay type: cell-based, human; conditions: NCI-H460, Non-small cell lung cancer, 48 hours treatment; for CC50: Homo sapiens, read-out: LC50 (the source's name)
MDA-MB-231/ATCC = experiment: NCI-60 SRB growth inhibition: MDA-MB-231/ATCC; assay type: cell-based, human; conditions: Breast cancer, 48 hours treatment
HS 578T = experiment: NCI-60 SRB growth inhibition: HS 578T; assay type: cell-based, human; conditions: Breast cancer, 48 hours treatment; for CC50: Homo sapiens, read-out: LC50 (the source's name)
M0LT-4 = experiment: NCI-60 SRB growth inhibition: M0LT-4; assay type: cell-based, human; conditions: M0LT-4, Leukemia; 48 hours treatment
EKVX = experiment: NCI-60 SRB growth inhibition: EKVX; assay type: cell-based, human; conditions: Non-small cell lung cancer, 48 hours treatment; for CC50: Homo sapiens, read-out: LC50 (the source's name)
RXF 393 = experiment: NCI-60 SRB growth inhibition: RXF 393; assay type: cell-based, human; conditions: RXF 393, Renal cancer, 48 hours treatment; for CC50: Homo sapiens, read-out: LC50 (the source's name)
T-47D = experiment: NCI-60 SRB growth inhibition: T-47D; assay type: cell-based, human; conditions: Breast cancer, 48 hours treatment; for CC50: Homo sapiens, T47D, read-out: LC50 (the source's name)
HT29 = experiment: NCI-60 SRB growth inhibition: HT29; assay type: cell-based, human; conditions: HT29, Colon cancer, 48 hours treatment; for CC50: Homo sapiens, HT-29, read-out: LC50 (the source's name)
ACHN = experiment: NCI-60 SRB growth inhibition: ACHN; assay type: cell-based, human; conditions: Renal cancer, 48 hours treatment; for CC50: Homo sapiens, read-out: LC50 (the source's name)
SW-620 = experiment: NCI-60 SRB growth inhibition: SW-620; assay type: cell-based, human; conditions: SW-620, Colon cancer, 48 hours treatment; for CC50: Homo sapiens, read-out: LC50 (the source's name)
HCC-2998 = experiment: NCI-60 SRB growth inhibition: HCC-2998; assay type: cell-based, human; conditions: HCC-2998, Colon cancer; 48 hours treatment
SK-OV-3 = experiment: NCI-60 SRB growth inhibition: SK-OV-3; assay type: cell-based, human; conditions: SK-OV-3, Ovarian cancer; 48 hours treatment
PC-3 = experiment: NCI-60 SRB growth inhibition: PC-3; assay type: cell-based, human; conditions: PC-3, Prostate cancer; 48 hours treatment
UACC-257 = experiment: NCI-60 SRB growth inhibition: UACC-257; assay type: cell-based, human; conditions: for CC50: Homo sapiens, UACC-257, 48 h, read-out: LC50 (the source's name); for TGI: UACC-257, Melanoma, 48 hours treatment
U251 = experiment: NCI-60 SRB growth inhibition: U251; assay type: cell-based, human; conditions: U251, CNS cancer, 48 hours treatment; for CC50: Homo sapiens, U-251, read-out: LC50 (the source's name)
UO-31 = experiment: NCI-60 SRB growth inhibition: UO-31; assay type: cell-based, human; conditions: UO-31, Renal cancer; 48 hours treatment
HCT-15 = experiment: NCI-60 SRB growth inhibition: HCT-15; assay type: cell-based, human; conditions: HCT-15, Colon cancer; 48 hours treatment
KM12 = experiment: NCI-60 SRB growth inhibition: KM12; assay type: cell-based, human; conditions: KM12, Colon cancer, 48 hours treatment; for CC50: Homo sapiens, read-out: LC50 (the source's name)

T1 sequence (P00519 whole entry): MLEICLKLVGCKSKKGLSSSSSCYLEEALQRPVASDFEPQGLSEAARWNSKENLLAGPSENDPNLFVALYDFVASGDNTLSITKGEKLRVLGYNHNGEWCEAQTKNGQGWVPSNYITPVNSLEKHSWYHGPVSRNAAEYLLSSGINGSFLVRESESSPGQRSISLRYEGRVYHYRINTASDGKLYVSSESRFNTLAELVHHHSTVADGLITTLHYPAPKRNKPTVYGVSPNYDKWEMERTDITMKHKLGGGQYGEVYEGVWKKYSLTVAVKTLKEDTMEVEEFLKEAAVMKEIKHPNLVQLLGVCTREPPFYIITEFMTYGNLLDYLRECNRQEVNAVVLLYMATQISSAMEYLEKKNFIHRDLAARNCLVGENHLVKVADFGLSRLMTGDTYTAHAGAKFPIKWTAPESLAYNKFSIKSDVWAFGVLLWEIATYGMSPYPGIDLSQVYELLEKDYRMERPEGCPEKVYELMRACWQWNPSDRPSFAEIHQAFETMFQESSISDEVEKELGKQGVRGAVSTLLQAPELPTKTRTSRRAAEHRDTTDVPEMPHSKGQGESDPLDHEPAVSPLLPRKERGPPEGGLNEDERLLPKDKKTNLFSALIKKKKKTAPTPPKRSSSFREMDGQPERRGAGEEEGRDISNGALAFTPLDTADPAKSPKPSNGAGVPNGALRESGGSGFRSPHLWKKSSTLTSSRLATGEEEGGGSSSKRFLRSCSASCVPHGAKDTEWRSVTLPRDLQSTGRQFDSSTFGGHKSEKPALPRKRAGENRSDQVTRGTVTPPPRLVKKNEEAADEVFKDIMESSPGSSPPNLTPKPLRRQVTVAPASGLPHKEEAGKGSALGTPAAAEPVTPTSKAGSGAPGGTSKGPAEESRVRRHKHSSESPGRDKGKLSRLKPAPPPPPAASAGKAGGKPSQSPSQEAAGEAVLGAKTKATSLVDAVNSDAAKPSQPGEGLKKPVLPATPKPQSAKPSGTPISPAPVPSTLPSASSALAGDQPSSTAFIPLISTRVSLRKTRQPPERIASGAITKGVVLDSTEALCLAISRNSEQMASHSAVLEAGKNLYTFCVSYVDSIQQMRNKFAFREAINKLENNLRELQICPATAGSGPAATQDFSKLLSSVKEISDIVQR

Compound: c1ccc(Cc2cnc(N3CCN(c4ncnc5ccccc45)CC3)nc2)cc1 [Compound 4, 4-(4-(5-benzylpyrimidin-2-yl)piperazin-1-yl)quinazoline]
- CC50 (A549/ATCC): > 100 µM
- TGI (A549/ATCC): 35.70 µM
- TGI (HCT-116): 13.20 µM
- TGI (SF-268): 57.20 µM
- TGI (MCF7): 58.20 µM
- inhibitory action over ABL kinase function (ABL kinase): without affecting ABL subfamily members
- TGI (786-0): 36.70 µM
- CC50 (TK-10): > 100 µM
- TGI (TK-10): 60.80 µM
- CC50 (MDA-MB-468): > 100 µM
- TGI (MDA-MB-468): 2.73 µM
- CC50 (IGROVI): > 100 µM
- TGI (IGROVI): 63.30 µM
- CC50 (SNB-19): > 100 µM
- TGI (SNB-19): >100 µM
- CC50 (NCI-H460): 55 µM
- TGI (NCI-H460): 23.70 µM
- TGI (MDA-MB-231/ATCC): 38.10 µM
- TGI (HS 578T): 54.80 µM
- CC50 (HS 578T): > 100 µM
- TGI (M0LT-4): 40.60 µM
- CC50 (EKVX): > 100 µM
- TGI (EKVX): 33.10 µM
- CC50 (RXF 393): > 100 µM
- TGI (RXF 393): 57.90 µM
- TGI (T-47D): 45.50 µM
- CC50 (T-47D): > 100 µM
- TGI (HT29): 35.10 µM
- CC50 (HT29): 79.2 µM
- CC50 (ACHN): > 100 µM
- TGI (ACHN): 42.40 µM
- CC50 (SW-620): 59.9 µM
- TGI (SW-620): 27.70 µM
- TGI (HCC-2998): 60.90 µM
- TGI (SK-OV-3): >100 µM
- TGI (PC-3): >100 µM
- CC50 (UACC-257): 41.4 µM
- TGI (UACC-257): 16.80 µM
- CC50 (U251): 54.1 µM
- TGI (U251): 24.60 µM
- TGI (UO-31): 38.40 µM
- TGI (HCT-15): 63.20 µM
- CC50 (KM12): 50.1 µM
- TGI (KM12): 25.10 µM

Compound: CCc1cnc(N2CCN(C(=O)c3ccc(CNc4ncnc5ccccc45)cc3)CC2)nc1 [Compound 15, (4-(5-ethylpyrimidin-2-yl)piperazin-1-yl)(4-((quinazolin-4-ylamino)methyl)phenyl)methanone]
- CC50 (A549/ATCC): > 100 µM
- TGI (A549/ATCC): >100 µM
- TGI (HCT-116): 25.00 µM
- TGI (SF-268): >100 µM
- TGI (MCF7): 72.80 µM
- inhibitory action over ABL kinase function (ABL kinase): weak inhibitory action
- TGI (786-0): 54.80 µM
- CC50 (TK-10): > 100 µM
- TGI (TK-10): >100 µM
- CC50 (MDA-MB-468): > 100 µM
- TGI (MDA-MB-468): 2.22 µM
- CC50 (IGROVI): > 100 µM
- TGI (IGROVI): 49.80 µM
- CC50 (SNB-19): > 100 µM
- TGI (SNB-19): >100 µM
- CC50 (NCI-H460): > 100 µM
- TGI (NCI-H460): 30.70 µM
- TGI (MDA-MB-231/ATCC): 84.90 µM
- TGI (HS 578T): >100 µM
- CC50 (HS 578T): > 100 µM
- TGI (M0LT-4): 27.60 µM
- CC50 (EKVX): > 100 µM
- TGI (EKVX): 61.40 µM
- CC50 (RXF 393): > 100 µM
- TGI (RXF 393): 41.60 µM
- TGI (T-47D): >100 µM
- CC50 (T-47D): > 100 µM
- TGI (HT29): 83.20 µM
- CC50 (HT29): > 100 µM
- CC50 (ACHN): > 100 µM
- TGI (ACHN): 82.50 µM
- CC50 (SW-620): > 100 µM
- TGI (SW-620): 45.10 µM
- TGI (HCC-2998): 48.90 µM
- TGI (SK-OV-3): >100 µM
- TGI (PC-3): >100 µM
- CC50 (UACC-257): > 100 µM
- TGI (UACC-257): 26.80 µM
- CC50 (U251): > 100 µM
- TGI (U251): >100 µM
- TGI (UO-31): 60.50 µM
- TGI (HCT-15): >100 µM
- CC50 (KM12): 53.8 µM
- TGI (KM12): 24.30 µM

Compound: O=C(c1cccc(Nc2ncnc3ccccc23)c1)N1CCN(c2ncc(Cc3ccccc3)cn2)CC1 [Compound 16, (4-(5-benzylpyrimidin-2-yl)piperazin-1-yl)(3-(quinazolin-4-ylamino)phenyl)methanone]
- CC50 (A549/ATCC): 8.13 µM
- TGI (A549/ATCC): 3.09 µM
- TGI (HCT-116): 3.55 µM
- TGI (SF-268): >100 µM
- TGI (MCF7): 2.29 µM
- inhibitory action over ABL kinase function (ABL kinase): weak inhibitory action
- TGI (786-0): 6.61 µM
- CC50 (TK-10): 39.8 µM
- TGI (TK-10): 6.17 µM
- CC50 (MDA-MB-468): > 100 µM
- TGI (MDA-MB-468): 3.47 µM
- CC50 (IGROVI): 5.01 µM
- TGI (IGROVI): 1.82 µM
- CC50 (SNB-19): > 100 µM
- TGI (SNB-19): 8.91 µM
- CC50 (NCI-H460): > 100 µM
- TGI (NCI-H460): 4.27 µM
- TGI (MDA-MB-231/ATCC): 2.95 µM
- TGI (HS 578T): 7.41 µM
- CC50 (HS 578T): > 100 µM
- TGI (M0LT-4): 1.34 µM
- CC50 (EKVX): > 100 µM
- TGI (EKVX): 4.90 µM
- CC50 (RXF 393): > 100 µM
- TGI (RXF 393): 11.48 µM
- TGI (T-47D): 7.59 µM
- CC50 (T-47D): 5.62 µM
- TGI (HT29): 9.33 µM
- CC50 (HT29): > 100 µM
- CC50 (ACHN): > 100 µM
- TGI (ACHN): 4.57 µM
- CC50 (SW-620): > 100 µM
- TGI (SW-620): 4.27 µM
- TGI (HCC-2998): 3.98 µM
- TGI (SK-OV-3): 4.47 µM
- TGI (PC-3): 2.88 µM
- CC50 (UACC-257): 5.37 µM
- TGI (UACC-257): 2.63 µM
- CC50 (U251): > 100 µM
- TGI (U251): 6.61 µM
- TGI (UO-31): 1.82 µM
- TGI (HCT-15): 3.55 µM
- CC50 (KM12): 6.61 µM
- TGI (KM12): 2.40 µM
